One compound from PMC5218480 (PLoS ONE, 2017) can be followed below.

The assay relates to MV-4-11 cells. The assay can be described thus: Gene expression microarray analysis (Affymetrix PrimeView) and GSEA. The note with it: MV-4-11 cells, 48 hours. Further details: RFU PODN (11730768_x_at) / Fold change /veh PODN (11730768_x_at) / RFU LINC00158 (11744669_a_at) / Fold change /veh LINC00158 (11744669_a_at) / RFU DUSP10 (11751237_a_at) / Fold change /veh DUSP10 (11751237_a_at) / RFU ID3 (11757404_x_at) / Fold change /veh ID3 (11757404_x_at) / RFU PLEKHG5 (11737974_s_at) / Fold change /veh PLEKHG5 (11737974_s_at) / RFU LRRC4B (11730491_at) / Fold change /veh LRRC4B (11730491_at) / RFU GIMAP4 (11747438_a_at) / Fold change /veh GIMAP4 (11747438_a_at) / RFU KRT8 (11758183_x_at) / Fold change /veh KRT8 (11758183_x_at) / RFU CNN1 (11734310_a_at) / Fold change /veh CNN1 (11734310_a_at) / RFU VPS37D (11726825_at) / Fold change /veh VPS37D (11726825_at) / RFU C10orf10 (11716522_x_at) / Fold change /veh C10orf10 (11716522_x_at) / RFU KIR2DL2 /// KIR2DL4 /// KIR2DL5A /// KIR2DL5B /// KIR2DS1 /// KIR2DS2 /// KIR2DS3 /// KIR2DS4 /// KIR3DL3 /// KIR3DL3 /// KIR3DS1 (11738374_at) / Fold change /veh KIR2DL2 /// KIR2DL4 /// KIR2DL5A /// KIR2DL5B /// KIR2DS1 /// KIR2DS2 /// KIR2DS3 /// KIR2DS4 /// KIR3DL3 /// KIR3DL3 /// KIR3DS1 (11738374_at) / RFU C1QL1 (11718748_at) / Fold change /veh C1QL1 (11718748_at) / RFU TMPRSS4 (11747572_a_at) / Fold change /veh TMPRSS4 (11747572_a_at) / RFU HAMP (11756126_x_at) / Fold change /veh HAMP (11756126_x_at) / RFU RNFT2 (11725882_a_at) / Fold change /veh RNFT2 (11725882_a_at) / RFU NR4A2 (11747474_a_at) / Fold change /veh NR4A2 (11747474_a_at) / RFU ABCC12 (11746883_a_at) / Fold change /veh ABCC12 (11746883_a_at) / RFU TMEM136 (11760407_x_at) / Fold change /veh TMEM136 (11760407_x_at) / RFU CLDN22 /// WWC2 (11732394_at) / Fold change /veh CLDN22 /// WWC2 (11732394_at) / RFU HLA-DPB1 (11760878_x_at) / Fold change /veh HLA-DPB1 (11760878_x_at) / RFU SPINT1 (11716480_a_at) / Fold change /veh SPINT1 (11716480_a_at) / RFU GAP43 (11754022_s_at) / Fold change /veh GAP43 (11754022_s_at) / RFU A4GNT (11735810_at) / Fold change /veh A4GNT (11735810_at) / RFU PRB3 (11715151_x_at) / Fold change /veh PRB3 (11715151_x_at) / RFU TUBB4B (11761932_at) / Fold change /veh TUBB4B (11761932_at) / RFU CAPN14 (11732068_a_at) / Fold change /veh CAPN14 (11732068_a_at) / RFU TMCC2 (11721928_a_at) / Fold change /veh TMCC2 (11721928_a_at) / RFU IRGQ (11745062_a_at) / Fold change /veh IRGQ (11745062_a_at) / RFU FAM174B (11720279_a_at) / Fold change /veh FAM174B (11720279_a_at) / RFU TMPRSS4 (11748680_a_at) / Fold change /veh TMPRSS4 (11748680_a_at) / RFU FAM212B (11763350_a_at) / Fold change /veh FAM212B (11763350_a_at) / RFU PLEKHG5 (11743358_a_at) / Fold change /veh PLEKHG5 (11743358_a_at) / RFU ZSCAN30 (11745921_a_at) / Fold change /veh ZSCAN30 (11745921_a_at) / RFU CMKLR1 (11741424_a_at) / Fold change /veh CMKLR1 (11741424_a_at) / RFU LOC101060620 /// MAPK8IP1 (11723275_at) / Fold change /veh LOC101060620 /// MAPK8IP1 (11723275_at) / RFU SPTSSB (11747773_x_at) / Fold change /veh SPTSSB (11747773_x_at) / RFU PRSS12 (11739890_at) / Fold change /veh PRSS12 (11739890_at) / RFU BIN1 (11741810_x_at) / Fold change /veh BIN1 (11741810_x_at) / RFU WNT11 (11732464_a_at) / Fold change /veh WNT11 (11732464_a_at) / RFU C10orf10 (11716521_a_at) / Fold change /veh C10orf10 (11716521_a_at) / RFU C5orf56 (11738089_at) / Fold change /veh C5orf56 (11738089_at) / RFU CYB561 (11721691_x_at) / Fold change /veh CYB561 (11721691_x_at) / RFU ANKRD19P (11752326_a_at) / Fold change /veh ANKRD19P (11752326_a_at) / RFU OR2T12 /// OR2T33 /// OR2T8 (11738714_s_at) / Fold change /veh OR2T12 /// OR2T33 /// OR2T8 (11738714_s_at) / RFU VCAN (11748164_a_at) / Fold change /veh VCAN (11748164_a_at) / RFU JSRP1 (11732532_at) / Fold change /veh JSRP1 (11732532_at) / RFU KRTAP10-11 (11738290_x_at) / Fold change /veh KRTAP10-11 (11738290_x_at) / RFU MYO3A (11730013_a_at) / Fold change /veh MYO3A (11730013_a_at) / RFU EBF3 (11725865_a_at) / Fold change /veh EBF3 (11725865_a_at) / RFU CAMK2N1 (11719241_x_at) / Fold change /veh CAMK2N1 (11719241_x_at) / RFU C5orf56 (11738088_a_at) / Fold change /veh C5orf56 (11738088_a_at) / RFU OLFML3 (11715873_a_at) / Fold change /veh OLFML3 (11715873_a_at) / RFU LOC100653217 /// NTM (11731650_a_at) / Fold change /veh LOC100653217 /// NTM (11731650_a_at) / RFU MAPK11 (11762145_a_at) / Fold change /veh MAPK11 (11762145_a_at) / RFU FIZ1 (11724087_x_at) / Fold change /veh FIZ1 (11724087_x_at) / RFU OASL (11726364_x_at) / Fold change /veh OASL (11726364_x_at) / RFU SOX15 (11748057_x_at) / Fold change /veh SOX15 (11748057_x_at) / RFU CD79A (11719716_a_at) / Fold change /veh CD79A (11719716_a_at) / RFU HIST1H1D (11736915_at) / Fold change /veh HIST1H1D (11736915_at) / RFU CASKIN2 (11723855_a_at) / Fold change /veh CASKIN2 (11723855_a_at) / RFU LOC730098 (11760151_x_at) / Fold change /veh LOC730098 (11760151_x_at) / RFU OR4N2 (11742367_at) / Fold change /veh OR4N2 (11742367_at) / RFU PRRT2 (11749266_a_at) / Fold change /veh PRRT2 (11749266_a_at) / RFU SNX32 (11753110_a_at) / Fold change /veh SNX32 (11753110_a_at) / RFU CDHR5 (11726645_a_at) / Fold change /veh CDHR5 (11726645_a_at) / RFU RCAN1 (11760418_a_at) / Fold change /veh RCAN1 (11760418_a_at) / RFU FAM167A (11723789_a_at) / Fold change /veh FAM167A (11723789_a_at) / RFU FAM26E (11764081_at) / Fold change /veh FAM26E (11764081_at) / RFU ISYNA1 (11749810_s_at) / Fold change /veh ISYNA1 (11749810_s_at) / RFU ACY1 (11761880_at) / Fold change /veh ACY1 (11761880_at) / RFU 11764098_at / Fold change /veh 11764098_at / RFU SAMD14 (11745864_x_at) / Fold change /veh SAMD14 (11745864_x_at) / RFU NPB (11741838_a_at) / Fold change /veh NPB (11741838_a_at) / RFU TMPRSS6 (11731388_a_at) / Fold change /veh TMPRSS6 (11731388_a_at) / RFU KRTAP10-2 (11738614_at) / Fold change /veh KRTAP10-2 (11738614_at) / RFU ARHGAP8 /// PRR5-ARHGAP8 (11727945_x_at) / Fold change /veh ARHGAP8 /// PRR5-ARHGAP8 (11727945_x_at) / RFU KRTAP5-7 /// NADSYN1 (11734609_at) / Fold change /veh KRTAP5-7 /// NADSYN1 (11734609_at) / RFU RASL12 (11751679_a_at) / Fold change /veh RASL12 (11751679_a_at) / RFU CDKN2B (11736163_a_at) / Fold change /veh CDKN2B (11736163_a_at) / RFU PRF1 (11729649_at) / Fold change /veh PRF1 (11729649_at) / RFU, ZNF638 /// ZNF638-IT1 / Fold change vs veh, ZNF638 /// ZNF638-IT1 / RFU, PANK3 / Fold change vs veh, PANK3 / RFU, SH3YL1 / Fold change vs veh, SH3YL1 / RFU, ZEB2 / Fold change vs veh, ZEB2 / RFU, NRIP1 / Fold change vs veh, NRIP1 / RFU, PTTG1IP / Fold change vs veh, PTTG1IP / RFU, CAPN2 / Fold change vs veh, CAPN2 / RFU, MED14 / Fold change vs veh, MED14 / RFU, SNORA58 / Fold change vs veh, SNORA58 / RFU, C1orf63 / Fold change vs veh, C1orf63 / RFU, LRRFIP1 / Fold change vs veh, LRRFIP1 / RFU, NDUFAF7 / Fold change vs veh, NDUFAF7 / RFU, SLC12A2 / Fold change vs veh, SLC12A2 / RFU, IBTK / Fold change vs veh, IBTK / RFU, ESF1 / Fold change vs veh, ESF1 / Fold change vs veh, TMEM50B / RFU, TAOK1 / Fold change vs veh, TAOK1 / RFU, ACBD3 / Fold change vs veh, ACBD3 / RFU, TMA16 / Fold change vs veh, TMA16 / RFU, RWDD3 / Fold change vs veh, RWDD3 / RFU, BCAT1 / Fold change vs veh, BCAT1 / RFU, EDEM3 / Fold change vs veh, EDEM3 / RFU, TMEM33 / Fold change vs veh, TMEM33 / RFU, WDR75 / Fold change vs veh, WDR75 / RFU, AHCTF1 / Fold change vs veh, AHCTF1 / RFU, TFRC / Fold change vs veh, TFRC / RFU, ZDHHC17 / Fold change vs veh, ZDHHC17 / RFU, NOM1 / Fold change vs veh, NOM1 / RFU, ARL8B / Fold change vs veh, ARL8B / RFU, ZBTB11 / Fold change vs veh, ZBTB11 / RFU, TAMM41 / Fold change vs veh, TAMM41 / RFU, KIAA1704 /// LOC100996395 / Fold change vs veh, KIAA1704 /// LOC100996395 / RFU, ING1 / Fold change vs veh, ING1 / RFU, TRMT61B / Fold change vs veh, TRMT61B / RFU, FUBP3 / Fold change vs veh, FUBP3 / RFU, TP53 / Fold change vs veh, TP53 / RFU, TNKS2 / Fold change vs veh, TNKS2 / RFU, ZFP14 / Fold change vs veh, ZFP14 / RFU, ACTR2 / Fold change vs veh, ACTR2 / RFU, PPP3R1 / Fold change vs veh, PPP3R1 / RFU, PIK3R1 / Fold change vs veh, PIK3R1 / RFU, HNRNPA1 / Fold change vs veh, HNRNPA1 / RFU, RNF170 / Fold change vs veh, RNF170 / RFU, ZNF28 / Fold change vs veh, ZNF28 / RFU, RNGTT / Fold change vs veh, RNGTT / RFU, OGT / Fold change vs veh, OGT / RFU, BRD1 / Fold change vs veh, BRD1 / RFU, MARS / Fold change vs veh, MARS / RFU, ZNF655 / Fold change vs veh, ZNF655 / RFU, FAHD1 / Fold change vs veh, FAHD1 / RFU, BDP1 / Fold change vs veh, BDP1 / RFU, LRRCC1 / Fold change vs veh, LRRCC1 / RFU, ARID1A / Fold change vs veh, ARID1A / RFU, ZNF146 / Fold change vs veh, ZNF146 / RFU, ZNF330 / Fold change vs veh, ZNF330 / RFU, GPN3 / Fold change vs veh, GPN3 / RFU, C9orf123 / Fold change vs veh, C9orf123 / RFU, N4BP2L2 / Fold change vs veh, N4BP2L2 / RFU, ARFIP1 / Fold change vs veh, ARFIP1 / RFU, FAM179B / Fold change vs veh, FAM179B / RFU, BCL10 / Fold change vs veh, BCL10 / RFU, UHRF1BP1L / Fold change vs veh, UHRF1BP1L / RFU, BET1 / Fold change vs veh, BET1 / RFU, CNOT2 / Fold change vs veh, CNOT2 / RFU, ZNF268 / Fold change vs veh, ZNF268 / Fold change vs veh, ZNF507 / RFU, DGCR2 / Fold change vs veh, DGCR2 / RFU, WDSUB1 / Fold change vs veh, WDSUB1 / Fold change vs veh, HSP90B1 /// MIR3652 / RFU, ADSS / Fold change vs veh, ADSS / RFU, GK / Fold change vs veh, GK / RFU, ZNF148 / Fold change vs veh, ZNF148 / RFU, TAF9 / Fold change vs veh, TAF9 / RFU, SLC1A5 / Fold change vs veh, SLC1A5 / RFU, SLMO2 / Fold change vs veh, SLMO2 / RFU, ABCC4 / Fold change vs veh, ABCC4 / RFU, LOC101060439 /// RAP1B / Fold change vs veh, LOC101060439 /// RAP1B / RFU, RFX7 / Fold change vs veh, RFX7 / RFU, GTPBP10 / Fold change vs veh, GTPBP10 / RFU, CNEP1R1 / Fold change vs veh, CNEP1R1 / RFU, BIVM-ERCC5 /// ERCC5 / Fold change vs veh, BIVM-ERCC5 /// ERCC5 / RFU, ILF3 / Fold change vs veh, ILF3 / RFU 11762660_at / Fold change /veh 11762660_at / RFU VCAN (11757783_s_at) / Fold change /veh VCAN (11757783_s_at) / RFU DDX43 (11728927_at) / Fold change /veh DDX43 (11728927_at) / RFU KRT8 (11758188_x_at) / Fold change /veh KRT8 (11758188_x_at) / RFU NKD1 (11759106_at) / Fold change /veh NKD1 (11759106_at) / RFU SRD5A1 (11742802_a_at) / Fold change /veh SRD5A1 (11742802_a_at) / RFU TPSAB1 /// TPSB2 (11721975_s_at) / Fold change /veh TPSAB1 /// TPSB2 (11721975_s_at) / RFU GSTM3 (11746129_a_at) / Fold change /veh GSTM3 (11746129_a_at) / RFU IL23R (11737362_x_at) / Fold change /veh IL23R (11737362_x_at) / RFU TMEM51 (11727254_a_at) / Fold change /veh TMEM51 (11727254_a_at) / RFU PIWIL2 (11732686_x_at) / Fold change /veh PIWIL2 (11732686_x_at) / RFU ORM1 (11744905_x_at) / Fold change /veh ORM1 (11744905_x_at) / RFU CCDC152 (11743942_at) / Fold change /veh CCDC152 (11743942_at) / RFU ECM1 (11717891_a_at) / Fold change /veh ECM1 (11717891_a_at) / RFU IL23R (11748794_a_at) / Fold change /veh IL23R (11748794_a_at) / RFU TNFAIP8L3 (11732012_x_at) / Fold change /veh TNFAIP8L3 (11732012_x_at) / RFU MBOAT4 (11741988_at) / Fold change /veh MBOAT4 (11741988_at) / RFU 11764193_at / Fold change /veh 11764193_at / RFU TMEM53 (11763286_at) / Fold change /veh TMEM53 (11763286_at) / RFU MAGEB2 (11727129_at) / Fold change /veh MAGEB2 (11727129_at) / RFU TMEM200A (11744735_a_at) / Fold change /veh TMEM200A (11744735_a_at) / RFU CCDC152 (11751479_a_at) / Fold change /veh CCDC152 (11751479_a_at) / RFU FAM211A (11726209_a_at) / Fold change /veh FAM211A (11726209_a_at) / RFU RGS16 (11746705_a_at) / Fold change /veh RGS16 (11746705_a_at) / RFU VCAN (11755009_s_at) / Fold change /veh VCAN (11755009_s_at) / RFU RHOB (11743442_s_at) / Fold change /veh RHOB (11743442_s_at) / RFU RGS16 (11720943_a_at) / Fold change /veh RGS16 (11720943_a_at) / RFU RGS16 (11720944_at) / Fold change /veh RGS16 (11720944_at) / RFU, VPS4B / Fold change vs veh, VPS4B / RFU, CREB1 / Fold change vs veh, CREB1 / RFU, DNAJC13 / Fold change vs veh, DNAJC13 / RFU, GNAQ / Fold change vs veh, GNAQ / RFU, CDK5R1 / Fold change vs veh, CDK5R1 / RFU, ZRANB3 / Fold change vs veh, ZRANB3 / RFU, CUL4A / Fold change vs veh, CUL4A / RFU, CCNY / Fold change vs veh, CCNY / RFU, UFL1 / Fold change vs veh, UFL1 / RFU, COG3 / Fold change vs veh, COG3 / RFU, DIAPH2 / Fold change vs veh, DIAPH2 / RFU, SKA2 / Fold change vs veh, SKA2 / RFU, AFF3 / Fold change vs veh, AFF3 / RFU, LMF1 / Fold change vs veh, LMF1 / RFU, IPO11 / Fold change vs veh, IPO11 / RFU, DFFB / Fold change vs veh, DFFB / RFU, FOXP1 / Fold change vs veh, FOXP1 / RFU, CARD8 / Fold change vs veh, CARD8 / RFU, STRN3 / Fold change vs veh, STRN3 / RFU, ADK / Fold change vs veh, ADK / RFU, RASSF2 / Fold change vs veh, RASSF2 / RFU, WIPF1 / Fold change vs veh, WIPF1 / RFU, LARP1B / Fold change vs veh, LARP1B / RFU, RASA1 / Fold change vs veh, RASA1 / RFU, RB1 / Fold change vs veh, RB1 / RFU, PPFIA1 / Fold change vs veh, PPFIA1 / RFU, MAT2A / Fold change vs veh, MAT2A / RFU, CCT5 / Fold change vs veh, CCT5 / RFU, WDR92 / Fold change vs veh, WDR92 / RFU, CUX1 / Fold change vs veh, CUX1 / RFU, TTC7A / Fold change vs veh, TTC7A / RFU, TMEM135 / Fold change vs veh, TMEM135 / RFU, DEPTOR / Fold change vs veh, DEPTOR / RFU, CPM / Fold change vs veh, CPM / RFU, DNAJB6 / Fold change vs veh, DNAJB6 / RFU, CACNA2D3 / Fold change vs veh, CACNA2D3 / RFU, DTX4 / Fold change vs veh, DTX4 / RFU, TFCP2 / Fold change vs veh, TFCP2 / RFU, GMCL1 /// GMCL1P1 / Fold change vs veh, GMCL1 /// GMCL1P1 / RFU, AEBP2 / Fold change vs veh, AEBP2 / RFU, SNHG1 /// SNORD22 /// SNORD25 /// SNORD26 /// SNORD27 /// SNORD28 /// SNORD29 /// SNORD31 / Fold change vs veh, SNHG1 /// SNORD22 /// SNORD25 /// SNORD26 /// SNORD27 /// SNORD28 /// SNORD29 /// SNORD31 / Fold change (Aza/veh), C12orf56 (ProbeSet 11735607_a_at) / Fold change (ACY-1035/veh), C12orf56 (ProbeSet 11735607_a_at) / Fold change (Aza/veh), FGFR1OP (ProbeSet 11751329_s_at) / Fold change (ACY-1035/veh), FGFR1OP (ProbeSet 11751329_s_at) / Fold change (Aza/veh), VPS36 (ProbeSet 11739960_a_at) / Fold change (ACY-1035/veh), VPS36 (ProbeSet 11739960_a_at) / RFU SYPL1 (11715823_x_at) / Fold change /veh SYPL1 (11715823_x_at) / RFU IGFBP7 (11715501_s_at) / Fold change /veh IGFBP7 (11715501_s_at) / RFU REEP3 (11722064_at) / Fold change /veh REEP3 (11722064_at) / RFU IGLL1 (11728026_x_at) / Fold change /veh IGLL1 (11728026_x_at): dose or concentration left out as unconfirmed. The assay is classed as cell-based, human.

On to `Nc1ccc(-c2cccs2)cc1NC(=O)c1ccc2c(c1)cc(C1CC1)n2CCN1CCOCC1` [ACY-1035], for which the “RFU ACY1 (11761880_at)” value is 20.30 RFU.
